# Results published in article doi:10.1101/2023.05.15.540887, “Comparative analysis of drug-like EP300/CREBBP acetyltransferase inhibitors” (bioRxiv, 2023).
# Assays:
# IGROV1 = tested on: IGROV1; design: method as in ref 29 (a number printed in a supplementary file, which may have a reference list of its own: not looked up in the article's list); details: Ovarian IGROV1; highest log conc -4.0; NCI-60 screen data; cited from earlier work
# RXF393 = tested on: RXF393; design: method as in ref 29 (a number printed in a supplementary file, which may have a reference list of its own: not looked up in the article's list); details: Renal RXF393; highest log conc -4.0; NCI-60 screen data; cited from earlier work
# SR = tested on: SR; design: method as in ref 29 (a number printed in a supplementary file, which may have a reference list of its own: not looked up in the article's list); details: Leukemia SR; highest log conc -4.0; NCI-60 screen data; cited from earlier work
# SK-MEL-5 = tested on: SK-MEL-5; design: method as in ref 29 (a number printed in a supplementary file, which may have a reference list of its own: not looked up in the article's list); details: Melanoma SK-MEL-5; highest log conc -4.0; NCI-60 screen data; cited from earlier work
# 786-0 = tested on: 786-0; design: method as in ref 29 (a number printed in a supplementary file, which may have a reference list of its own: not looked up in the article's list); details: Renal 786-0; highest log conc -4.0; NCI-60 screen data; cited from earlier work
# NCI-H522 = tested on: NCI-H522; design: method as in ref 29 (a number printed in a supplementary file, which may have a reference list of its own: not looked up in the article's list); details: Non-SmallCellLung NCI-H522; highest log conc -4.0; NCI-60 screen data; cited from earlier work
# MDA-MB-468 = tested on: MDA-MB-468; design: method as in ref 29 (a number printed in a supplementary file, which may have a reference list of its own: not looked up in the article's list); details: Breast MDA-MB-468; highest log conc -4.0; NCI-60 screen data; cited from earlier work
# OVCAR-3 = tested on: OVCAR-3; design: method as in ref 29 (a number printed in a supplementary file, which may have a reference list of its own: not looked up in the article's list); details: Ovarian OVCAR-3; highest log conc -4.0; NCI-60 screen data; cited from earlier work
# HL-60(TB) = tested on: HL-60(TB); design: method as in ref 29 (a number printed in a supplementary file, which may have a reference list of its own: not looked up in the article's list); details: Leukemia HL-60(TB); highest log conc -4.0; NCI-60 screen data; cited from earlier work
# RPMI-8226 = tested on: RPMI-8226; design: method as in ref 29 (a number printed in a supplementary file, which may have a reference list of its own: not looked up in the article's list); details: Leukemia RPMI-8226; highest log conc -4.0; NCI-60 screen data; cited from earlier work
# M14 = tested on: M14; design: method as in ref 29 (a number printed in a supplementary file, which may have a reference list of its own: not looked up in the article's list); details: Melanoma M14; highest log conc -4.0; NCI-60 screen data; cited from earlier work
# K-562 = tested on: K-562; design: method as in ref 29 (a number printed in a supplementary file, which may have a reference list of its own: not looked up in the article's list); details: Leukemia K-562; highest log conc -4.0; NCI-60 screen data; cited from earlier work
# UACC-62 = tested on: UACC-62; design: method as in ref 29 (a number printed in a supplementary file, which may have a reference list of its own: not looked up in the article's list); details: Melanoma UACC-62; highest log conc -4.0; NCI-60 screen data; cited from earlier work
# A549/ATCC = tested on: A549/ATCC; design: method as in ref 29 (a number printed in a supplementary file, which may have a reference list of its own: not looked up in the article's list); details: Non-SmallCellLung A549/ATCC; highest log conc -4.0; NCI-60 screen data; cited from earlier work
# NCI-H460 = tested on: NCI-H460; design: method as in ref 29 (a number printed in a supplementary file, which may have a reference list of its own: not looked up in the article's list); details: Non-SmallCellLung NCI-H460; highest log conc -4.0; NCI-60 screen data; cited from earlier work
# SK-MEL-28 = tested on: SK-MEL-28; design: method as in ref 29 (a number printed in a supplementary file, which may have a reference list of its own: not looked up in the article's list); details: Melanoma SK-MEL-28; highest log conc -4.0; NCI-60 screen data; cited from earlier work
# NCI-H322M = tested on: NCI-H322M; design: method as in ref 29 (a number printed in a supplementary file, which may have a reference list of its own: not looked up in the article's list); details: Non-SmallCellLung NCI-H322M; highest log conc -4.0; NCI-60 screen data; cited from earlier work
# NCI-H23 = tested on: NCI-H23; design: method as in ref 29 (a number printed in a supplementary file, which may have a reference list of its own: not looked up in the article's list); details: Non-SmallCellLung NCI-H23; highest log conc -4.0; NCI-60 screen data; cited from earlier work
# SN12C = assay: NCI-60 growth inhibition (sulforhodamine B); type: cell-based; details: Homo sapiens, Renal Cancer, negative log of Molar value
# BT-549 = assay: NCI-60 growth inhibition (sulforhodamine B); type: cell-based; details: Homo sapiens, BT-549, Breast Cancer, negative log of Molar value, LCONC -8, EXPID 2301NS84
# MDA-MB-231/ATCC = assay: NCI-60 growth inhibition (sulforhodamine B); type: cell-based; details: Homo sapiens, Breast Cancer, negative log of Molar value, LCONC -8, EXPID 2301NS84, read-out: IC50 NLOGVALUE
smiles,measurement,setting,value
COC(=O)N1c2ccc3c(nc(Cc4ccccc4)n3[C@H]3CCC[C@H](C(=O)O)C3)c2CC[C@@H]1C [FT-6876],GI50 AVGDATA,IGROV1,-4.68
same,GI50 AVGDATA,RXF393,-4.91
same,GI50 AVGDATA,SR,-4.86
same,GI50 AVGDATA,SK-MEL-5,-4.99
same,GI50 AVGDATA,786-0,-5.25
same,GI50 AVGDATA,NCI-H522,-4.95
same,GI50 AVGDATA,MDA-MB-468,-5.42
same,GI50 AVGDATA,OVCAR-3,-4.88
same,GI50 AVGDATA,HL-60(TB),-5.5
same,GI50 AVGDATA,RPMI-8226,-5.42
same,GI50 AVGDATA,M14,-5.23
same,GI50 AVGDATA,K-562,-5.3
same,GI50 AVGDATA,UACC-62,-5.68
same,GI50 AVGDATA,A549/ATCC,-4.56
same,GI50 AVGDATA,NCI-H460,-4.63
same,GI50 AVGDATA,SK-MEL-28,-4.88
same,GI50 AVGDATA,NCI-H322M,-4.82
Cc1sc2c(c1C)C(c1ccc(Cl)cc1)=N[C@@H](CC(=O)OC(C)(C)C)c1nnc(C)n1-2 [JQ-1],GI50 AVGDATA,IGROV1,-6.19
same,GI50 AVGDATA,RXF393,-6.13
same,GI50 AVGDATA,SR,-7.35
same,GI50 AVGDATA,SK-MEL-5,-6.47
same,GI50 AVGDATA,NCI-H23,-6.55
same,GI50 AVGDATA,786-0,-6.08
same,GI50 AVGDATA,NCI-H522,-7.25
same,GI50 AVGDATA,MDA-MB-468,-6.95
same,GI50 AVGDATA,OVCAR-3,-6.3
same,GI50 AVGDATA,HL-60(TB),-7.52
same,GI50 AVGDATA,RPMI-8226,-7.4
same,GI50 AVGDATA,M14,-6.11
same,GI50 AVGDATA,K-562,-7.24
same,GI50 AVGDATA,UACC-62,-7.16
same,GI50 AVGDATA,A549/ATCC,-6.5
same,GI50 AVGDATA,NCI-H460,-6.22
same,GI50 AVGDATA,SK-MEL-28,-6.4
same,GI50 AVGDATA,NCI-H322M,-6.53
CO[C@H]1CC[C@H](n2c([C@@H]3CCCC(=O)N3c3ccc(F)c(F)c3)nc3cc(-c4c(C)noc4C)ccc32)CC1 [inobrodib],GI50 AVGDATA,IGROV1,-5.34
same,GI50 AVGDATA,RXF393,-5.32
same,GI50 AVGDATA,SR,-6.12
same,GI50 AVGDATA,SK-MEL-5,-5.24
same,GI50 AVGDATA,NCI-H23,-4.88
same,GI50 AVGDATA,NCI-H522,-5.53
same,GI50 AVGDATA,MDA-MB-468,-5.4
same,GI50 AVGDATA,OVCAR-3,-4.98
same,GI50 AVGDATA,HL-60(TB),-6.07
same,GI50 AVGDATA,RPMI-8226,-6.15
same,GI50 AVGDATA,M14,-5.73
same,GI50 AVGDATA,K-562,-5.55
same,GI50 AVGDATA,UACC-62,-5.6
same,GI50 AVGDATA,A549/ATCC,-4.93
same,GI50 AVGDATA,NCI-H460,-4.58
same,GI50 AVGDATA,SK-MEL-28,-4.93
same,GI50 AVGDATA,NCI-H322M,-4.94
C[C@H](CN[C@@H](C(=O)Nc1ccc(-c2cnn(C)c2)cn1)c1ccccc1)c1ccc(C#N)cc1 [CPI-1612],GI50,"SN12C; LCONC -8, EXPID 2301NS84, read-out: GI50 NLOGVALUE (converted)",0.224 µM
same,IC50,"SN12C; LCONC -8, EXPID 2301NS84, read-out: IC50 NLOGVALUE",> 100 µM
same,CC50,"SN12C; LCONC -8, EXPID 2301NS84, read-out: LC50 NLOGVALUE",> 100 µM
same,GI50,BT-549; read-out: GI50 NLOGVALUE,> 100 µM
same,IC50,BT-549; read-out: IC50 NLOGVALUE,> 100 µM
same,CC50,BT-549; read-out: LC50 NLOGVALUE,> 100 µM
same,IC50,MDA-MB-231/ATCC,> 100 µM
